Consider 1 compound from patent publication US12383566B2, “Inhibition of SLC transporter activity or expression to attenuate anthracycline-induced cardiotoxicity” (Northwestern University, priority 2021, dated 2025).

SMILES strings stand for the structures.

In data set [1] the test system is hiPSC-CMs. As to the kind of experiment: Flow cytometry-based doxorubicin uptake quantification (DOX intrinsic fluorescence). The note with it: drug 3 μM, doxorubicin 3 μM. The format is cell-based, human. As to the method: Patient-specific doxorubicin-induced cardiotoxicity (DIC) characterization.
Flow cytometry. hiPSCs were dissociated with TrypLE Express (Gibco) for 3 min at RT and 1×10^6 cells were transferred to flow cytometry tubes (Falcon). For staining of surface marker, cells were stained 5 mg ml^−1 (0.5%) BSA (Sigma) in DPBS using 1:20 mouse IgG3 SSEA4-488 (BD Biosciences, 560308) for 30 min at RT then washed twice in DPBS by centrifugation. For intracellular staining, cells were fixed with 4% PFA for 20 min at RT, washed twice with DPBS, and permeabilized with 1% saponin for 15 min at RT, and stained using 1:20 mouse IgG1 POU5F1-647 (BD Biosciences, 560307), and mouse IgG1 NANOG-647 (BD Biosciences, 561300) for 30 min at RT then washed. Isotype controls mouse IgG3-488 (BD Biosciences, 563636) and mouse IgG1-647 (BD Biosciences, 565571) were used to establish gating. Cardiomyocytes were dissociated with Liberase TH as described above, fixed and permeabilized as above, and stained using 1:100 mouse monoclonal IgG1 TNNT2-647 (BD Biosciences, 565744) for 30 min at RT and washed again. Isotype controls mouse IgG1-647 (BD Biosciences, 565571) were used to establish gating. […] All cells were analyzed using a CytoFLEX (Beckman Coulter) with CytExpert 2.0 software.
Flow cytometry-based doxorubicin uptake quantification. On day 14, cardiomyocytes were dissociated and then plated on 12-well plate (2×10^6 per well). […] Cells auto-fluorescence was assayed before doxorubicin treatment and serves as baseline fluorescence.

Data set [2] deals with hiPSC-CMs. As to the kind of experiment: Prestwick drug library screening for cardioprotection against DOX (10 μM, 72 h) by cell viability. Type of data set: cell-based, human. As to the method: (§1) FIGS. 5A, 5B, 5C, 5D, 5E, 5F, and 5G. […] All drugs were used at 3 μM. […] LD50, median lethal dose. […] F, Ventricular fractional shortening at baseline, 1-, 2-, 3-weeks post treatment. […] For (D and G) log-logistic non-linear regression model was used to estimate the value of the four parameters, and t-statistic was used to test for significant difference in LD50 between different groups.
(§2) Next, we sought to expand our screening for novel cardioprotectants by testing the cardioprotective role of the Prestwick drug library that includes 1219 drugs.
(§3) 384-well plate-based cell viability, caspase 3/7 activity assays. […] Luminescence was measured using a VarioSkan Lux Multi-Mode Reader (Thermo Scientific) with an integration time of 0.25 sec. Apoptosis was measured using Caspase 3/7-Glo (Promega) respectively according to manufacturer's instructions with an integration time of 1 sec. 10 μM staurosporine (MedChemExpress) was used as a positive control. Data were analyzed using Prism 7.0 software (GraphPad) using standard dose-response guidelines.

Data set [3] relates to hiPSC-CMs. As to the kind of experiment: Validation of top FDA-approved cardioprotectants against 10 log-doses of doxorubicin (viability LD50). The format is cell-based, human. The note with it: drug 3 μM, 72 h. As to the method:
as §1, §2, §3

Data set [4] has as its system Mouse model of doxorubicin-induced cardiomyopathy. As to the kind of experiment: Mouse model of doxorubicin-induced cardiomyopathy, echocardiographic evaluation. Type of data set: in vivo, C57BL/6J mice. The conditions noted are these: desipramine 20 mg kg^−1 day^−1 infusion, doxorubicin 3 mg kg^−1 ip twice weekly, three weeks, P<0.05. The text has this: Procedures followed were in accordance with Stanford University's institutional guidelines. […] For the control group, we treated mice with corn oil in the same schedule as desipramine administration. We recorded an echocardiogram once a week (day 0, day 7, day 14, and day 21) and terminated the experiment at day 21.
For the control group, we treated mice with corn oil in the same schedule as desipramine administration. We recorded an echocardiogram once a week (day 0, day 7, day 14, and day 21) and terminated the experiment at day 21.
Echocardiographic evaluation. Mice were studied at baseline and weekly during the protocol under light anesthesia with isoflurane (induction 3%, maintenance 1.5%). 2D images in the parasternal short axis were obtained with a GE Vivid 7 ultrasound system (GE Healthcare) equipped with a 13 MHz transducer. Left ventricular end-systolic (LVESD) and end-diastolic (LVEDD) dimensions were measured and left ventricular fractional shortening (FS) was calculated.

Data set [5] deals with eight cancer cell lines (HEPG2, DLD1, LNCAP, SK-UT-1, HeLa, U2OS, Hs 578T, MDA-MB-231) and MCF breast cancer cell line. As to the kind of experiment: Cell viability of cancer cell lines after doxorubicin and desipramine co-treatment. The note with it: eight cancer cell lines (breast, liver, colorectal, prostate, uterus, cervix, bone). Type of data set: cell-based, human. The method, then:
as §1
Breast cancer cell lines.

For another data set, the system named is sodium channel. The conditions noted are these: among its group (tricyclic antidepressants); cited from earlier work.
The conditions of data set [6]: chronic use; cited from earlier work.
The conditions of data set [7]: in vivo; cited from earlier work.

As for `CNCCCN1c2ccccc2CCc2ccccc21` [desipramine, 3-(5,6-dihydrobenzo[b][1]benzazepin-11-yl)-N-methylpropan-1-amine], the “DOX uptake in cells co-treated with drug plus doxorubicin as compared to doxorubicin only” value in the data set with hiPSC-CMs [1] (after 1 h (P=0.008)) and in the data set on hiPSC-CMs [1] (after 3 h (P=0.04)) was “significantly lower” throughout. Besides, the “rank among cardioprotective drugs in Prestwick library screening” value with hiPSC-CMs [2] (drug 3 μM (24 h pre-treatment + co-treatment)) was “top ten significant cardio-protectants”. In the data set on hiPSC-CMs [2] (drug 3 μM, vs DOX alone, P=0.007), the “protection against DOX-induced cardiomyocyte death” value was 2.5 fold. For the same compound, in the data set on hiPSC-CMs [3], the “LD50 of doxorubicin with cardioprotective drug co-treatment” value worked out at 10.66 µM. For the same compound, in data set [4], the “cardiac function (fractional shortening) attenuation by doxorubicin with drug compared with vehicle” value is “significantly less attenuated”. The “effect of co-treatment on anticancer efficacy of DOX” value in data set [5] is “did not impede the anticancer efficacy of DOX”. Besides, the sodium channel blockade entry in the data set on sodium channel is “most potent sodium channel blocker among its group”. Moreover, the cardiotoxicity entry in data set [6] is “causing cardiotoxicity when used chronically”. Also, in data set [7], the typical therapeutic concentration was 100 to 300 ng/mL.
